Tested on: not listed separately
Test: Solubility of the compound in 10% DMSO
Format: physicochemical

SMILES	solubility
CCOc1ccccc1-c1nc2c(-c3ccccc3)nn(-c3cccnc3)c2c(=O)[nH]1	Insoluble
CCCc1nn(C)c2c(=O)[nH]c(-c3ccsc3)nc12	Insoluble
CCOc1ccc(S(=O)(=O)N2CCN(C)CC2)cc1-c1nc2c(C)nn(C)c2c(=O)[nH]1	Insoluble
CCOc1ccccc1-c1nc2c(-c3ccccc3)nn(-c3ccccc3)c2c(=O)[nH]1	Insoluble
CCCc1nn(C)c2c(=O)[nH]c(-c3ccnn3C)nc12	Insoluble
CCCc1n[nH]c2c(O)nc(-c3ccccc3OCC)nc12	Insoluble

Target: T1, Class 1 phosphodiesterase PDEB1 (Trypanosoma brucei) (UniProt Q8WQX9)
T1 sequence (whole entry): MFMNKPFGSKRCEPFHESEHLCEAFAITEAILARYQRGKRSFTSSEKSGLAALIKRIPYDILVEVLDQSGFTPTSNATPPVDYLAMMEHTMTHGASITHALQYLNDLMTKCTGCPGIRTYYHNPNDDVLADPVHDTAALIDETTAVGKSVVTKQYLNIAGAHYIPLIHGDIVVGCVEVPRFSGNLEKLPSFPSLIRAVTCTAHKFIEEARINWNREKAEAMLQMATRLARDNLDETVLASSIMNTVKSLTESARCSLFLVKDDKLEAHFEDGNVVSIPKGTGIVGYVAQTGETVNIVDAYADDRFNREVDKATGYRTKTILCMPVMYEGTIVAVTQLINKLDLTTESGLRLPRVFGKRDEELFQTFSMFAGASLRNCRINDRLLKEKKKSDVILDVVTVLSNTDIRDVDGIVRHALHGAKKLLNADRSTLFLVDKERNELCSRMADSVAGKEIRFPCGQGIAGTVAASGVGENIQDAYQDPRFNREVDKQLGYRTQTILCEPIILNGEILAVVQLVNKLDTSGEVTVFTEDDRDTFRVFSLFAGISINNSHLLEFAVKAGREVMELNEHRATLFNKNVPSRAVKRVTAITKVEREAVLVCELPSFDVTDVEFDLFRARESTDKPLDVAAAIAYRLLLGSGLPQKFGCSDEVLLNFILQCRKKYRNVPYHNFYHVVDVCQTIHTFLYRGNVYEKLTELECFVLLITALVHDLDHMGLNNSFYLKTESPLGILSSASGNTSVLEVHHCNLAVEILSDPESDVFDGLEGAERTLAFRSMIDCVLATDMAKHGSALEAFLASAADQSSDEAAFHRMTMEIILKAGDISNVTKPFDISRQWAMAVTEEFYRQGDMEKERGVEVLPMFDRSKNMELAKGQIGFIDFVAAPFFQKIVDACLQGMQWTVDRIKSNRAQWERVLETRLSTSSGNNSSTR
Test: Inhibition of Trypanosoma brucei PDEB1 at 100 uM

SMILES	inhibition
CCCc1nn(C)c2c(=O)[nH]c(-c3nnco3)nc12	3.2%
CCCc1nn(C)c2c(=O)[nH]c(-c3cnc(C)cn3)nc12	30%
CCCc1nn(C)c2c(=O)[nH]c(-c3cscn3)nc12	25.4%
CCOc1ccccc1-c1nc2c(-c3ccccc3)n[nH]c2c(=O)[nH]1	22.9%
CCCc1nn(C)c2c(=O)[nH]c(-c3ccc(=O)[nH]n3)nc12	11.1%
CCCc1nn(C)c2c(=O)[nH]c(-c3cn(C)cn3)nc12	5.3%
CCCc1nn(C)c2c(=O)[nH]c(-c3cnccn3)nc12	6.5%
CCCc1nn(C)c2c(=O)[nH]c(-c3ncccc3C)nc12	72.1%
CCCc1nn(C)c2c(=O)[nH]c(-c3cc(S(=O)(=O)N4CCN(C)CC4)ccc3OCC)nc12	51.5%
CCOc1ccc(S(=O)(=O)N2CCN(C)CC2)cc1-c1nc2c(-c3ccccc3)nn(C)c2c(=O)[nH]1	17.5%
CCCc1nn(C)c2c(=O)[nH]c(-c3oc(C)nc3C)nc12	29%
CCCc1nn(C)c2c(=O)[nH]c(-c3cccnc3OCC)nc12	41.5%
CCCc1nn(C)c2c(=O)[nH]c(-c3nccnc3N)nc12	14.1%
CCOc1ccc(S(=O)(=O)N2CCN(C)CC2)cc1-c1nc2c(-c3ccccc3)n[nH]c2c(=O)[nH]1	70.9%
CCCc1nn(C)c2c(=O)[nH]c(-c3ccccc3OCC)nc12	21.8%
CCOc1ccccc1-c1nc2c(-c3ccccc3)nn(CC(N)=O)c2c(=O)[nH]1	7%
CCCc1nn(C)c2c(=O)[nH]c(-c3cn(C)nc3C)nc12	7.2%
CCCc1nn(C)c2c(=O)[nH]c(-c3cccnc3OC)nc12	77.2%
CCCc1n[nH]c2c(=O)[nH]c(-c3cc(S(=O)(=O)N4CCN(C)CC4)ccc3OCC)nc12	16%
CCCc1nn(C)c2c(=O)[nH]c(-c3cccc(S(=O)(=O)N4CCN(C)CC4)c3)nc12	8.4%
CCCc1nn(C)c2c(=O)[nH]c(-c3cccnc3OC(C)C)nc12	53.8%
CCOc1ccc(S(=O)(=O)N2CCN(C)CC2)cc1-c1nc2cnn(C)c2c(=O)[nH]1	13.6%
CCCc1nn(C)c2c(=O)[nH]c(-c3cccnc3O)nc12	22.5%
CCCc1nn(C)c2c(=O)[nH]c(-c3ccc(O)cc3)nc12	24%
CCCc1nn(-c2cccnc2)c2c(=O)[nH]c(-c3cc(S(=O)(=O)N4CCN(C)CC4)ccc3OCC)nc12	32.4%
CCCc1nn(C)c2c(=O)[nH]c(-c3snnc3C)nc12	16.3%
CCCc1nn(C)c2c(=O)[nH]c(-c3ccoc3)nc12	13.8%

From ChEMBL document CHEMBL2016513, “Synthesis and evaluation of human phosphodiesterases (PDE) 5 inhibitor analogs as trypanosomal PDE inhibitors. Part 1. Sildenafil analogs” (Bioorg Med Chem Lett, 2012)
